Here are results for 28 compounds from patent publication US6967196B1, “Sulfonamide compounds and uses thereof” (Bristol-Myers Squibb Company, priority 1999, dated 2005).

A word on the IC50: it is the concentration needed to halve the response being measured.

Counter-ions that a name gives are not always drawn.

The subject of one experiment is amyloid β production in transfected H4 (human neuroglioma) cells stably expressing APP constructs. Kind of experiment: In vitro cell-based assay of inhibitors of amyloid β production (ELISA). The note with it: Homo sapiens, 16 h, transfected H4 cells expressing APP, approximately 16 hours incubation, amyloid β in medium by ELISA; read-out: ACTIVITY (IC50, inhibition of amyloid β production). How it is done:
In Vitro Cell-Based Assay of Inhibitors of Amyloid β Production
Transfected H4 (human neuroglioma) cells stably expressing APP constructs are used to identify and assess inhibitors of Aβ production. In brief, cells lines are exposed to compounds, and the effect of each compound on amyloid β production is determined by measuring the amount of amyloid β produced using an enzyme linked immunosorbent assay (ELISA) that detects amyloid β (see, for example, Seubert et al., (1992) Nature, 359:325-327).
Transfected cells that stably express wild-type and variant forms of APP are plated in 96-well format plates at a density sufficient for the rapid detection of the secreted amyloid β (experimentally predetermined for a particular stable cell population). Cells are plated at least six hours prior to the introduction of the test compound at which time the growth medium is replaced by fresh medium containing the compound to be tested. All synthetic agents are initially screened at doses ranging from 10-100 μM. Higher dilutions of agents can be used to minimize cytotoxicity. Incubation of cells with a test compound continues for approximately 16 hours at which time aliquots of medium from each well are removed and assayed for amyloid β.
ELISA is carried out by methods known in the art (see, e.g., Haass et al., Antibodies: A Laboratory Manual, Harlow and lane, Editors, Cold Spring Harbor Press, 1988) The capture antibody is typically a mouse monoclonal (IgG1/kβ-APPa) which recognizes the carboxyl terminal epitope of amyloid β. The specificity of the capture antibody insures measurement of amyloid β without interference from other secreted APP fragments that share amino acid sequence (amyloid β 1-16) homology with amyloid β but lack the carboxy-terminal region. The detecting antibody is typically an affinity-purified rabbit polyclonal antibody that is specific for the amino terminus of amyloid β.
Results from test compounds are compared to results obtained when cells are treated with control agents. Amyloid β levels are determined by comparison to a standard curve obtained by subjecting a range of known amounts of amyloid β to the ELISA.
A compound is identified as “active” when it inhibits cellular production of amyloid β relative to levels in control samples by at least 50% at the initial tested concentration without significant cytotoxicity. Active compounds are then assayed in dose-response experiments to determine the lowest dose of compound necessary for inhibition of amyloid β production.
For orientation: An ELISA detects its analyte on a solid surface through an enzyme-linked reagent.
Consider `C[C@H](COC(=O)NC(C)(C)C)N(c1cc(Cl)ccc1CO)S(=O)(=O)c1ccc(Cl)cc1` [Example 1282], for which the IC50 is ≤ 0.025 µM.

`CC(C)NC(=O)OC[C@@H](C)N(c1cc(Cl)ccc1CO)S(=O)(=O)c1ccc(Cl)cc1` [Example 1286]: the IC50 is ≤ 0.025 µM.

Still in this experiment, the particulars now being: Homo sapiens, 16 h, transfected H4 cells stably expressing APP constructs; approximately 16 hours incubation; amyloid β in medium by ELISA; read-out: ACTIVITY (IC50, inhibition of amyloid β production).
As for `CN(C)CCCOc1ccccc1CN(c1ccccc1)S(=O)(=O)c1ccc([N+](=O)[O-])cc1` [Example 1083, N-{2-[3-(dimethylamino)propoxy]benzyl}-4-nitro-N-phenylbenzenesulfonamide], the IC50 is > 10 µM.

The same experiment, now with this note: Homo sapiens, 16 h, transfected H4 cells stably expressing APP; approximately 16 hours incubation; amyloid β in medium by ELISA; Table B; read-out: ACTIVITY (IC50, inhibition of amyloid β production).
Take `C[C@H](c1ccc(F)cc1COCc1cccnc1)N(c1cc(F)ccc1F)S(=O)(=O)c1ccc(Cl)cc1` [Example 380, 4-chloro-N-(2,5-difluorophenyl)-N-((1R)-1-{4-fluoro-2-[(3-pyridinylmethoxy)methyl]phenyl}ethyl)benzenesulfonamide]: the IC50 lay within 0.05 to 0.1 µM.

For the compound `CC(c1ccccc1OCCN(C)C(=O)N(C)C)N(c1cc(F)ccc1F)S(=O)(=O)c1ccc(Cl)cc1` (stereo not shown) [Example 397, 4-chloro-N-(2,5-difluorophenyl)-N-[1-(2-{2-[[(dimethylamino)carbonyl](methyl)amino]ethoxy}phenyl)ethyl]benzenesulfonamide], the concentration for half-maximal inhibition (IC50) lay within 0.05 to 0.1 µM.

The experiment is the same for the next values; noted with them: Homo sapiens, 16 h, transfected H4 cells stably expressing APP; approximately 16 hours incubation; amyloid β in medium by ELISA; read-out: ACTIVITY (IC50, inhibition of amyloid β production).
Regarding `CC(COc1ccccc1CN(c1ccccc1)S(=O)(=O)c1ccc(Cl)cc1)N1CCC1` (stereo not shown) [Example 918, N-{2-[2-(1-azetidinyl)propoxy]benzyl}-4-chloro-N-phenylbenzenesulfonamide hydrochloride], the IC50 is > 0.5 µM.

In the case of `COc1ccc(S(=O)(=O)N(Cc2ccccc2OCCCN2CCCCC2)c2cc(F)ccc2F)cc1` [Example 879, N-(2,5-difluorophenyl)-4-methoxy-N-{2-[3-(1-piperidinyl)propoxy]benzyl}benzenesulfonamide hydrochloride], the 50% inhibitory concentration (IC50) was > 0.5 µM.

Regarding `O=C(c1ccc(I)cc1)N1CCCCC1CCOc1ccccc1CN(c1cc(F)ccc1F)S(=O)(=O)c1ccc(Cl)cc1` (stereo not shown) [Example 901, 4-chloro-N-(2,5-difluorophenyl)-N-(2-{2-[1-(4-iodobenzoyl)-2-piperidinyl]ethoxy}benzyl)benzenesulfonamide], the IC50 is > 0.5 µM.

Regarding `CN1CCCCC1CCOc1ccccc1CN(c1ccccc1)S(=O)(=O)c1ccc(Cl)cc1` (stereo not shown) [Example 889, 4-chloro-N-{2-[2-(1-methyl-2-piperidinyl)ethoxy]benzyl}-N-phenylbenzenesulfonamide hydrochloride], the IC50 is > 0.5 µM.

For `O=S(=O)(c1ccc(Cl)cc1)N(Cc1ccccc1OCCCN1CCCCC1)C1CCOCC1` [Example 986, 4-chloro-N-{2-[3-(1-piperidinyl)propoxy]benzyl}-N-tetrahydro-2H-pyran-4-ylbenzenesulfonamide hydrochloride], the half-inhibitory concentration (IC50) is > 0.5 µM.

For the compound `O=C(c1ccc(OC(F)(F)F)cc1)N1CCCCC1CCOc1ccccc1CN(c1cc(F)ccc1F)S(=O)(=O)c1ccc(Cl)cc1` (stereo not shown) [Example 1033, 4-chloro-N-(2,5-difluorophenyl)-N-[2-(2-{1-[4-(trifluoromethoxy)benzoyl]-2-piperidinyl}ethoxy)benzyl]benzenesulfonamide], the half-maximal inhibitory concentration (IC50) is > 0.5 µM.

The experiment is the same for the next values; noted with them: transfected H4 cells stably expressing APP constructs; approximately 16 hours incubation; amyloid β in medium by ELISA; read-out: ACTIVITY (IC50, inhibition of amyloid β production).
As to `COC(=O)[C@@H](NC(=O)CCCC[C@@H](C)N(c1cc(Cl)ccc1F)S(=O)(=O)c1ccc(Cl)cc1)C(C)C` [Example 1261, (R)-4-Chloro-N-(5-chloro-2-fluorophenyl)-N-[6-[N-(S)-[1-(methoxycarbonyl)-2-methylpropyl]amino]-1-methyl-6-oxohexyl]benzenesulfonamide], the concentration for half-maximal inhibition (IC50) is ≤ 0.025 µM.

On to `C[C@H](COC(=O)NCCCn1ccnc1)N(c1cc(Cl)ccc1F)S(=O)(=O)c1ccc(Cl)cc1` [Example 1244, 4-Chloro-N-(2-fluoro-5-chlorophenyl)-N-[2-[[N′-[3-(1H-imidazol-1-yl)propylamino]carbonyl]oxy]-(R)-1-methylethyl]benzenesulfonamide], for which the concentration for half-maximal inhibition (IC50) is ≤ 0.025 µM.

With `C[C@H]([C@@H](C)OC(=O)NCCCn1ccnc1)N(c1cc(Cl)ccc1CO)S(=O)(=O)c1ccc(Cl)cc1` [Example 1246, 4-Chloro-N-[5-chloro-2-(hydroxymethyl)phenyl]-N-[2-[[N′-[3-(1H-imidazol-1-yl)propylamino]carbonyl]oxy]-(1R)-(2R)-dimethylethyl]benzenesulfonamide], the half-inhibitory concentration (IC50) was ≤ 0.025 µM.

With `COC(=O)[C@H](CC(C)C)NC(=O)CCC[C@@H](C)N(c1cc(Cl)ccc1F)S(=O)(=O)c1ccc(Cl)cc1` [Example 1265, (R)-4-Chloro-N-(5-chloro-2-fluorophenyl)-N-[6-[N-(S)-[1-(methoxycarbonyl)-3-methylbutyl]amino]-1-methyl-5-oxopentyl]benzenesulfonamide], the 50% inhibitory concentration (IC50) lay within 0.05 to 0.1 µM.

Consider `C[C@H](COC(=O)N1CCC[C@H]1CO)N(c1cc(Cl)ccc1Cl)S(=O)(=O)c1ccc(Cl)cc1` [Example 1241], for which the IC50 was ≤ 0.025 µM.

The same experiment, now with this note: transfected H4 cells stably expressing APP; approx. 16 h incubation; amyloid β in medium by ELISA; read-out: ACTIVITY (IC50, inhibition of amyloid β production).
As to `CN(CCCOc1ccccc1CN(c1cc(F)ccc1F)S(=O)(=O)c1ccc(Cl)cc1)C(=O)CCCCC1SCC2NC(=O)NC21` (stereo not shown) [Example 666, N-{3-[2-({[(4-chlorophenyl)sulfonyl]-2,5-difluoroanilino}methyl)phenoxy]propyl}-N-methyl-5-(2-oxohexahydro-1H-thieno[3,4-d]imidazol-4-yl)pentamide], the 50% inhibitory concentration (IC50) is 0.1 to 0.5 µM.

As for “N-{4-[2-(1-{[(4-chlorophenyl)sulfonyl]-2,5-difluoroanilino}ethyl)phenoxy]butyl}-N-ethyl-2-thiophenecarboxamide [Example 756]”, the half-maximal inhibitory concentration (IC50) is 0.1 to 0.5 µM.

For the compound “(2Z)-N-{3-[2-(1-{[(4-chlorophenyl)sulfonyl]-2,5-difluoroanilino}ethyl)phenoxy]propyl}-N-methyl-3-phenyl-2-propenamide [Example 738]”, the IC50 was 0.1 to 0.5 µM.

Turning to “N-{4-[2-(1-{[(4-chlorophenyl)sulfonyl]-2,5-difluoroanilino}ethyl)phenoxy]butyl}-N-ethylacrylamide [Example 739]”, the IC50 lay within 0.1 to 0.5 µM.

In the case of “2-({[(4-chlorophenyl)sulfonyl]-2,5-difluoroanilino}methyl)phenyl acrylate [Example 681]”, the IC50 lay in the range of 0.1 to 0.5 µM.

The same experiment, now with this note: transfected H4 cells stably expressing APP; approximately 16 hours incubation; amyloid β in medium by ELISA; Table B; read-out: ACTIVITY (IC50, inhibition of amyloid β production).
As to `COC(=O)CS(=O)(=O)CCc1cc(F)ccc1[C@@H](C)N(c1cc(F)ccc1F)S(=O)(=O)c1ccc(Cl)cc1` [Example 478, Methyl ({2-[2-((1R)-1-{[(4-chlorophenyl)sulfonyl]-2,5-difluoroanilino}ethyl)-5-fluorophenyl]ethyl}sulfonyl)acetate], the IC50 lay within 0.1 to 0.5 µM.

In the case of `CC(c1ccccc1OCCCNC(=O)c1cccnc1)N(c1cc(F)ccc1F)S(=O)(=O)c1ccc(Cl)cc1` (stereo not shown) [Example 359, N-{3-[2-(1-{[(4-chlorophenyl)sulfonyl]-2,5-difluoroanilino}ethyl)phenoxy]propyl}nicotinamide], the half-inhibitory concentration (IC50) is 0.05 to 0.1 µM.

Staying with this experiment, now noted: transfected H4 cells stably expressing APP; approximately 16 hours incubation; amyloid β in medium by ELISA; read-out: ACTIVITY (IC50, inhibition of amyloid β production).
As to “N-{2-[2-(1-{[(4-chlorophenyl)sulfonyl]-2,5-difluoroanilino}ethyl)phenoxy]ethyl}-N,2-diethylhexanamide [Example 831]”, the half-inhibitory concentration (IC50) was in the range of 0.1 to 0.5 µM.

In the case of “4-chloro-N-{3-[2-({[(4-chlorophenyl)sulfonyl]-2,5-difluoroanilino}methyl)phenoxy]propyl}-N-methylbenzamide [Example 970]”, the IC50 was > 0.5 µM.

For “N-{3-[2-({[(4-chlorophenyl)sulfonyl]-2,5-difluoroanilino}methyl)phenoxy]propyl}-3,5-difluoro-N-methylbenzamide [Example 1000]”, the IC50 was > 0.5 µM.

Regarding “2,2,2-trichloro-N-{3-[2-({[(4-chlorophenyl)sulfonyl]-2,5-difluoroanilino}methyl)phenoxy]propyl}-N-methylacetamide [Example 853]”, the half-maximal inhibitory concentration (IC50) was 0.1 to 0.5 µM.

For “[({4-[2-((1R)-1-{[(4-chlorophenyl)sulfonyl]-2,5-difluoroanilino}ethyl)-5-fluorophenyl]butanoyl}amino)oxy]acetic acid [Example 1077]”, the concentration for half-maximal inhibition (IC50) is > 0.5 µM.
